Reference: patent publication US11957677B2, “Cancer treatment using FGFR inhibitors and PLK1 inhibitors” (Cardiff Oncology, Inc., priority 2021, dated 2024)

Columns and labels:
[1] = test system: γ-H2AX; assay: γ-H2AX by Western Blot; format: cell-based; details: NCI-H1703
[2] = test system: γ-H2AX; assay: γ-H2AX positive cells by flow cytometry; format: cell-based; details: NCI-H1703
From the text: To confirm the above observations, percentage of γ-H2AX positive cells was quantified using flow cytometry.

[3] = target: IGFR (Homo sapiens, UniProt P08069); details: cellular; read-out: IC50, cellular IGFR ligand-induced phosphorylation; cited from earlier work
[4] = test system: cleaved caspase-3; assay: cleaved caspase-3 by Western Blot; format: cell-based; details: NCI-H1703; 24 h and 48 h; onvansertib 50 nM, AZD4547 2.5 μM
Method: In addition, the amounts of cleaved caspase-3 and cleaved PARP were determined at 6 h, 24 h and 48 h after different treatments using Western Blot.

[5] = test system: NCI-H1703 cells; assay: colony forming capacity, crystal violet staining; format: cell-based; details: onvansertib 50 nM, AZD4547 250 nM
From the text: The culture media was changed again after 3 days. After culturing for another 6 days, the NCI-H1703 cells were stained with crystal violet. The workflow of determining colony forming capacity is illustrated in FIG. 21. […] The colonies formed by NCI-H1703 cells shown in FIG. 22 were quantified as indicated by percentage relative intensity (FIG. 23).

[6] = test system: AML cell lines; details: cited from earlier work
[7] = target: PLK1 (Homo sapiens, UniProt P53350); details: among a panel of 296 kinases, including other PLK members; cited from earlier work
[8] = test system: NPM at Threonine 199; assay: phosphorylation of NPM at Threonine 199; format: cell-based; details: NCI-H1703; 6 hrs, 24 hrs and 48 hrs
[9] = test system: cleaved caspase-3; assay: cleaved-caspase-3 positive cells by flow cytometry; format: cell-based; details: NCI-H1703; 24 h and 48 h; onvansertib 50 nM, AZD4547 2.5 μM
[10] = patients, cited from earlier work
[11] = test system: NCI-H1703 cells; assay: cell cycle analysis; format: cell-based; details: 48 hrs, onvansertib 50 nM, AZD4547 2.5 μM
Method: (§1) The percentage of pHH3 positive cells was also determined using flow cytometry at 24 h and 48 h.

[12] = test system: phosphorylated histone H3 (pHH3); assay: pHH3 positive cells by flow cytometry; format: cell-based; details: NCI-H1703
Method: as §1

[13] = test system: FGFR1-amplified lung cancer cells; details: in combination with FGFR inhibitors; cited from earlier work
[14] = time point not given, compared to cells receiving no treatment
[15] = time point not given, compared to DMSO
[16] = 24 h and 48 h, onvansertib 50 nM, AZD4547 2.5 μM

PLK1, sequence (P53350 whole entry): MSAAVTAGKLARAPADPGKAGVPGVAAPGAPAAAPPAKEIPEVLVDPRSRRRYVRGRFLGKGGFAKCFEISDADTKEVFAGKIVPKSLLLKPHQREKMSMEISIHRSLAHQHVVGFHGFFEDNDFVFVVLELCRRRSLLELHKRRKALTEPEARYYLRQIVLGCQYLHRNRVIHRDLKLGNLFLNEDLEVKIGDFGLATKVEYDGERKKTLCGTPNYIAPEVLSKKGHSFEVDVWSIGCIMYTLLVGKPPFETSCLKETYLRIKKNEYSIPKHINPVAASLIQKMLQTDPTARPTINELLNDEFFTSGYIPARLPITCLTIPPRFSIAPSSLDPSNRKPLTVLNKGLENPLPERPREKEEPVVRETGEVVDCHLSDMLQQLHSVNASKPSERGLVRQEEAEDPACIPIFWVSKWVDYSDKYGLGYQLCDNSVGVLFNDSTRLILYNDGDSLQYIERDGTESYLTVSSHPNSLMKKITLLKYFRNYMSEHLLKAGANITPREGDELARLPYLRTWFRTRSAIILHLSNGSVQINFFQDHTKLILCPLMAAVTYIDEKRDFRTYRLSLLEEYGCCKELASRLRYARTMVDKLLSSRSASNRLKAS
IGFR, sequence (P08069 31-1367): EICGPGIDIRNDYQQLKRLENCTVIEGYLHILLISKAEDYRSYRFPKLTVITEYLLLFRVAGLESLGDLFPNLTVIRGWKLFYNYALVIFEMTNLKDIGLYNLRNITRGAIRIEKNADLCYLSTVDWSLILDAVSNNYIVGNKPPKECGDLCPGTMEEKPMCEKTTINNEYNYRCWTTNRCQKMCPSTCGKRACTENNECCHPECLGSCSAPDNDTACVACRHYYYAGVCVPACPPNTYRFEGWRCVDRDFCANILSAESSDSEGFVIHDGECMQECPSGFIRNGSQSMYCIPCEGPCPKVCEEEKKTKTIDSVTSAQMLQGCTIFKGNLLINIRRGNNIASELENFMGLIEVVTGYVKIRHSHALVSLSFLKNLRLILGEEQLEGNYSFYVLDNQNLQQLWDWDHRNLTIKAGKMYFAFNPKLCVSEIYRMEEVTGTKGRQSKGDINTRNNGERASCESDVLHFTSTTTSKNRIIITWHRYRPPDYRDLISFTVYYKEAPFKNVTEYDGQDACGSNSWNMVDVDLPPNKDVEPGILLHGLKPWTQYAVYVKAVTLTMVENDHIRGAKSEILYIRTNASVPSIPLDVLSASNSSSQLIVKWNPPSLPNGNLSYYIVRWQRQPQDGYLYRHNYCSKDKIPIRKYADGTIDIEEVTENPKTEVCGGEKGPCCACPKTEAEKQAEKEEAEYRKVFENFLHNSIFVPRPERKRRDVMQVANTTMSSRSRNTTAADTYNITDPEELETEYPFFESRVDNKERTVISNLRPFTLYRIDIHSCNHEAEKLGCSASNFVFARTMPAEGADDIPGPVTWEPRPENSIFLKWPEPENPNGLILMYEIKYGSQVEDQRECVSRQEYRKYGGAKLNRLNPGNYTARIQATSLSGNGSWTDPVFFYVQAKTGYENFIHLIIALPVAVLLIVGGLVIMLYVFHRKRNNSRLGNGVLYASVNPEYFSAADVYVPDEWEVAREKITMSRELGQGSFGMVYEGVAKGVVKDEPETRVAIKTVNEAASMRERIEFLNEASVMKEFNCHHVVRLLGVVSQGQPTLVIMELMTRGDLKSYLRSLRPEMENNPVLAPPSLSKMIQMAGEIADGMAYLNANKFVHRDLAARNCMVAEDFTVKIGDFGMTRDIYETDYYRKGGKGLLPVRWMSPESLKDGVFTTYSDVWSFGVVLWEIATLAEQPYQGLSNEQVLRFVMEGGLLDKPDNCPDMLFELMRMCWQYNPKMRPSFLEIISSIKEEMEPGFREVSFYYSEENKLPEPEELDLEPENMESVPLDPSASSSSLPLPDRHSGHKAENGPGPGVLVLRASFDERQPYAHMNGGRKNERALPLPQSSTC

Row | SMILES | amounts of γ-H2AX [1, 14] | percentage of γ-H2AX positive cells [2, 15] | IC50 [3] [nM] | amount of cleaved caspase-3 [4] | colony-forming capacity [5] | inhibition of cell proliferation [6] | specificity for PLK1 [7] | phosphorylation of NPM at Threonine 199 [8] | percentage of cleaved-caspase-3 positive cells [9] | amounts of γ-H2AX [1, 16] | percentage of γ-H2AX positive cells [2, 16] | primary dose-limiting toxicities ([10]; phase I dose-escalation) | recovery of hematologic toxicities ([10]; reversible toxicities, phase I) [weeks] | % of cells in G2 and/or mitotic stages [11] | percentage of pHH3 positive cells ([12]; 24 h) | percentage of pHH3 positive cells ([12]; 48 h) | antiproliferative effects and apoptosis [13]
1 | COc1cc(CCc2cc(NC(=O)c3ccc(N4C[C@@H](C)N[C@@H](C)C4)cc3)n[nH]2)cc(OC)c1 [AZD4547, N-[5-[2-(3,5-Dimethoxyphenyl)ethyl]-2H-pyrazol-3-yl]-4-(3,5-diemthylpiperazin-1-yl)benzamide] | about the same | about the same | 828 |  |  |  |  |  |  |  |  |  |  |  |  |  | 
2 | CN1CCN(c2ccc(OC(F)(F)F)c(Nc3ncc4c(n3)-c3c(c(C(N)=O)nn3CCO)CC4)c2)CC1 [onvansertib, 1-(2-hydroxyethyl)-8-{[5-(4-methylpiperazin-1-yl)-2-(trifluoromethoxy)phenyl]amino}-4,5-dihydro-1H-pyrazolo[4,3-h] quinazoline-3-carboxamide] | about the same | about the same |  | increased the cleaved caspase-3 | reduced the colony-forming capacity | inhibited cell proliferation at nanomolar concentrations | high specificity | Increased phosphorylation of NPM | increased the percentage of cleaved-caspase-3 positive cells | increased the γ-H2AX | increased the percentage of γ-H2AX positive cells | neutropenia and thrombocytopenia | ≤ 3 | increased the % of cells in G2 and/or mitotic stages | increased the percentage of pHH3 positive cells | increased the percentage of pHH3 positive cells to a similar extent | 
3 | CC[C@@H]1C(=O)N(C)c2cnc(Nc3ccc(C(=O)NC4CCN(C)CC4)cc3OC)nc2N1C1CCCC1 [BI2536] |  |  |  |  |  |  |  |  |  |  |  |  |  |  |  |  | synergistically enhances antiproliferative effects and apoptosis
